In PubChem BioAssay (NCI):
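Interpolation was linear, between the two tested concentrations surrounding the appropriate level; five concentrations were tested over 48 hours in 96-well plates. GI50 is the concentration that inhibits growth by half. TGI denotes the concentration required for complete inhibition of growth.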

What was measured:
Assay in all cases: growth of human tumour cells (NCI), 48 h
[1] = test system: UO-31 renal
[2] = test system: HCC-2998 colon
[3] = test system: DU-145 prostate
[4] = test system: SN12C renal
[5] = test system: UACC-62 melanoma
[6] = test system: HCT-116 colon
[7] = test system: NCI-H226 lung
[8] = test system: HL-60(TB) leukemia
[9] = test system: EKVX NSCLC
[10] = test system: SW-620 colon
[11] = test system: HOP-62 NSCLC
[12] = test system: SK-MEL-28 melanoma
[13] = test system: OVCAR-3 ovarian
[14] = test system: CAKI-1 renal
[15] = test system: A498 renal
[16] = test system: OVCAR-4 ovarian
[17] = test system: U251 CNS
[18] = test system: RPMI-8226 leukemia
[19] = test system: MALME-3M melanoma
[20] = test system: T-47D breast
[21] = test system: M14 melanoma
[22] = test system: A549 NSCLC
[23] = test system: NCI-H460 lung
[24] = test system: SNB-75 CNS
[25] = test system: HOP-92 NSCLC
[26] = test system: KM12 colon
[27] = test system: NCI/ADR-RES ovarian
[28] = test system: ACHN renal
[29] = test system: K-562 leukemia
[30] = test system: COLO 205 colon
[31] = test system: SK-OV-3 ovarian
[32] = test system: SF-295 CNS
[33] = test system: NCI-H23 lung
[34] = test system: MDA-MB-231 breast
[35] = test system: TK-10 renal
[36] = test system: LOX IMVI melanoma
[37] = test system: MCF7 breast
[38] = test system: HCT-15 colon
[39] = test system: SNB-19 CNS
[40] = test system: MDA-MB-435
[41] = test system: MOLT-4 leukemia
[42] = test system: PC-3 prostate
[43] = test system: SF-268 CNS
[44] = test system: SK-MEL-5 melanoma
[45] = test system: BT-549 breast
[46] = test system: SF-539 CNS
[47] = test system: IGROV1 ovarian
[48] = test system: OVCAR-5 ovarian
[49] = test system: CCRF-CEM leukemia
[50] = test system: HS 578T breast
[51] = test system: 786-0 renal
[52] = test system: HT29 colon

SMILES: CCCCCCCCCCCCn1c(C)nc2ccccc21
- GI50 [1]: 7.58 µM
- TGI [1]: 20.6 µM
- GI50 [2]: 2.6 µM
- TGI [2]: 18 µM
- GI50 [3]: 17.2 µM
- TGI [3]: 35.4 µM
- GI50 [4]: 14.4 µM
- TGI [4]: 31.1 µM
- GI50 [5]: 13.1 µM
- TGI [5]: 26.9 µM
- GI50 [6]: 0.712 µM
- TGI [6]: 13 µM
- GI50 [7]: 12.7 µM
- TGI [7]: 31.7 µM
- GI50 [8]: 2.54 µM
- TGI [8]: 18.5 µM
- GI50 [9]: 1.72 µM
- TGI [9]: 19.3 µM
- GI50 [10]: 15.4 µM
- TGI [10]: 30.7 µM
- GI50 [11]: 12.4 µM
- TGI [11]: 25.5 µM
- GI50 [12]: 19.4 µM
- TGI [12]: 34.5 µM
- GI50 [13]: 14.7 µM
- TGI [13]: 30.2 µM
- GI50 [14]: 14 µM
- TGI [14]: 31.2 µM
- GI50 [15]: 12.4 µM
- TGI [15]: 25.5 µM
- GI50 [16]: 12.7 µM
- TGI [16]: 25.6 µM
- GI50 [17]: 11 µM
- TGI [17]: 24.9 µM
- GI50 [18]: 0.614 µM
- TGI [18]: 10.3 µM
- GI50 [19]: 16.2 µM
- TGI [19]: 33.6 µM
- GI50 [20]: 0.325 µM
- TGI [20]: 19.1 µM
- GI50 [21]: 13.7 µM
- TGI [21]: 26.6 µM
- GI50 [22]: 0.4 µM
- TGI [22]: 20.7 µM
- GI50 [23]: 10.5 µM
- TGI [23]: 24.3 µM
- GI50 [24]: 16.2 µM
- TGI [24]: 30.3 µM
- GI50 [25]: 11 µM
- TGI [25]: 23.9 µM
- GI50 [26]: 14.3 µM
- TGI [26]: 29 µM
- GI50 [27]: 2.55 µM
- TGI [27]: 12.9 µM
- GI50 [28]: 13.2 µM
- TGI [28]: 26.5 µM
- GI50 [29]: 1.11 µM
- TGI [29]: 16.4 µM
- GI50 [30]: 13.2 µM
- TGI [30]: 27.4 µM
- GI50 [31]: 13.6 µM
- TGI [31]: 26.5 µM
- GI50 [32]: 8.87 µM
- TGI [32]: 26.6 µM
- GI50 [33]: 0.49 µM
- TGI [33]: 11.5 µM
- GI50 [34]: 15.3 µM
- TGI [34]: 34.8 µM
- GI50 [35]: 11.2 µM
- TGI [35]: 25.5 µM
- GI50 [36]: 3.72 µM
- TGI [36]: 20.5 µM
- GI50 [37]: 5.15 µM
- TGI [37]: 23.3 µM
- GI50 [38]: 12.3 µM
- TGI [38]: 27.4 µM
- GI50 [39]: 13.5 µM
- TGI [39]: 26.3 µM
- GI50 [40]: 12.8 µM
- TGI [40]: 28.8 µM
- GI50 [41]: 10.2 µM
- TGI [41]: 23.5 µM
- GI50 [42]: 2.47 µM
- TGI [42]: 15.8 µM
- GI50 [43]: 19.6 µM
- TGI [43]: 41.1 µM
- GI50 [44]: 0.984 µM
- TGI [44]: 18.2 µM
- GI50 [45]: 12 µM
- TGI [45]: 28.7 µM
- GI50 [46]: 13.7 µM
- TGI [46]: 27 µM
- GI50 [47]: 14.7 µM
- TGI [47]: 28.3 µM
- GI50 [48]: 4.78 µM
- TGI [48]: 17.6 µM
- GI50 [49]: 2.79 µM
- TGI [49]: 21.2 µM
- GI50 [50]: 27.7 µM
- TGI [50]: 48.3 µM
- GI50 [51]: 11.5 µM
- TGI [51]: 24 µM
- GI50 [52]: 11.6 µM
- TGI [52]: 23.7 µM
